According to patent US20100311035A1, “Preservation solution for organs and biological tissues” (priority 2005, published 2010):

Key:
Rat kidneys = assay: Machine perfusion of rat kidneys for 24 hours, transplantation, post-transplant serum creatinine; type: in vivo; details: component(s) added to Belzer solution; kidneys preserved under machine perfusion for 24 hours, then transplanted; serum creatinine measured hourly for 6 hours; control BELZ solution; FIG. 2
Protocol: Rat kidneys were recovered as above. Seven different solutions were prepared for comparison according to Table 2. […] The kidneys were preserved under machine perfusion for 24 hours with the respective solutions, and transplanted into recipient animals. Post-transplant serum creatinine (S. CREAT) was measured hourly for 6 hours.

[1] = tested on: Sprague-Dawley rat kidneys; assay: Cold storage of rat kidneys for 24 hours, transplantation, post-transplant serum creatinine; type: in vivo; details: component(s) added to Viaspan; kidneys preserved under static conditions for 24 hours at 4° C, then transplanted; serum creatinine measured hourly for 6 hours; control VIASP solution; FIG. 1
Protocol: Sprague-Dawley rat kidneys were recovered in the normal fashion and were exsanguinated and cooled to 4° C. Experimental components were added to the solution to test for improvements in post-transplant function (indicated by serum creatinine levels). Seven different solutions were prepared for comparison according to Table 1. […] The kidneys were preserved under static conditions for 24 hours with the respective solutions, and transplanted into recipient animals. Post-transplant serum creatinine (S. CREAT) was measured hourly for 6 hours.

| Structure (SMILES) | improvement in post-transplant function (serum creatinine) compared to the control (Rat kidneys) | improvement in post-transplant function (indicated by serum creatinine levels) compared to the control [1] |
| --- | --- | --- |
| N=C(N)NCCC[C@H](N)C(=O)O [L-arginine] | Minimal, but statistically insignificant improvements | Minimal, but statistically insignificant improvements |
| CC(=O)N[C@@H](CS)C(=O)O [N-acetylcystein] | Minimal, but statistically insignificant improvements | Minimal, but statistically insignificant improvements |
| CCCCC[C@H](O)/C=C/[C@H]1[C@H](O)CC(=O)[C@@H]1CCCCCCC(=O)O [prostaglandin E1] | Minimal, but statistically insignificant improvements | Minimal, but statistically insignificant improvements |
| O=[N+]([O-])OCC(CO[N+](=O)[O-])O[N+](=O)[O-] [nitroglycerin] | Minimal, but statistically insignificant improvements | Minimal, but statistically insignificant improvements |
